Data: the NIST ThermoML archive (doi:10.1016/j.jct.2018.11.003)

Assay: cn = amount concentration of the nth substance listed, in mol/dm3
Settings: 298.15 K, 101.3 kPa, Liquid, Taylor dispersion method

Row | binary diffusion coefficient (c1 = 0.0002) | binary diffusion coefficient (c1 = 0.000402) | binary diffusion coefficient (c1 = 0.000603) | binary diffusion coefficient (c1 = 0.000801) | binary diffusion coefficient (c1 = 0.002) | binary diffusion coefficient (c1 = 0.00499) | binary diffusion coefficient (c1 = 0.00997) | binary diffusion coefficient (c1 = 0.05) | Compound
1 | 6.18e-10 m2/s | 6.18e-10 m2/s | 6.16e-10 m2/s | 6.11e-10 m2/s |  |  |  |  | O=C([O-])CC(O)(CC(=O)[O-])C(=O)[O-].O=C([O-])CC(O)(CC(=O)[O-])C(=O)[O-].[Ca+2].[Ca+2].[Ca+2] [calcium citrate] + O
2 |  |  |  |  | 8.48e-10 m2/s | 7.9e-10 m2/s | 7.6e-10 m2/s | 7.19e-10 m2/s | O=C(O)CC(O)(CC(=O)O)C(=O)O [citric acid] + O
